Assay results: US20220242874A1, “CAMPTOTHECIN DERIVATIVES” (SUN PHARMA ADVANCED RESEARCH COMPANY LIMITED, priority 2019, published 2022)
Counter-ions that a name gives are not always drawn. Like-named read-outs stand apart in the source and are kept apart here. Blank lines part the entries; values can stand above or below the compound they belong to.

Legend:
[1] = Buffer stability (phosphate buffer, 37° C., HPLC); format: physicochemical
Procedure: The representative compounds were first dissolved in a minimum quantity of DMSO in a volumetric flask and diluted up to the mark with diluent (water: acetonitrile 30:70). […] After the elapsed time, the buffer samples were diluted 4 times with acetonitrile and injected into an HPLC system. Quantification of representative compounds was done by HPLC.
HPLC method: Chromatographic separation was achieved on a Hypersil BDS C18 (100×4.6 mm, 5 μ) column using 25 mM KH2PO4 buffer (pH 7 with TEA): acetonitrile, 90:10 v/v as mobile phase-A and 25 mM KH2PO4 buffer (pH 7 with TEA): acetonitrile 30:70 v/v as mobile phase-B. The gradient started with initially 5% B to 45% B in 10 mins followed by 80% B in 22 mins and held up to 25 mins and then returned to initial conditions at 26 mins and continued up to 30 mins. The injection volume was kept 10 μL and the flow rate was kept at 1.0 mL/min. The UV-Vis Detector was set at 220 nm, the column oven was set at 37° C. and the sample cooler was set at […]. Total chromatographic runtime was 30 min.

NCI H187 cells = assay: In-vitro cancer cell growth inhibition assay (MTT); format: cell-based; details: Homo sapiens
Procedure: The compounds of the present invention were evaluated for their ability to inhibit the growth of various cell line models of small cell lung cancer (SCLC), colon cancer, pancreatic cancer and triple negative breast cancer (TNBC) in-vitro. Details of the cell lines and their respective complete growth media are described in Table 3. The growth inhibition assay was carried out as described below. Briefly, cells in complete growth media were seeded in 96-well plates at appropriate cell densities (seeding density details described in Table 3) and incubated at 37° C., 5% CO2 (3-4 hours for NCI-H526, NCI-H69, NCI-H187 and overnight for the rest of the cells). Serial dilutions of test compound in DMSO were added to the cells while maintaining the final DMSO concentration of 0.4%-0.5% in the well. […] Subsequently, MTT (final concentration 0.5 mg/mL in media) was incubated with the cells at 37° C., 5% CO2 for 4-5 hours. The formazan crystals were dissolved overnight at 37° C., 5% CO2 using 100 μL extractant (10% SDS in 0.01N HCl) and quantified using absorbance at 570 nm with reference wavelength 630 nm. Growth inhibition was represented as percent decrease in absorbance compared to vehicle treated cells.

HT-29 cells = assay: In-vitro cancer cell growth inhibition assay (MTT); format: cell-based; details: Homo sapiens, read-out: IC50 (nM) HT-29
Procedure: (§1) The compounds of the present invention were evaluated for their ability to inhibit the growth of various cell line models of small cell lung cancer (SCLC), colon cancer, pancreatic cancer and triple negative breast cancer (TNBC) in-vitro. Details of the cell lines and their respective complete growth media are described in Table 3. The growth inhibition assay was carried out as described below. Briefly, cells in complete growth media were seeded in 96-well plates at appropriate cell densities (seeding density details described in Table 3) and incubated at 37° C., 5% CO2 (3-4 hours for NCI-H526, NCI-H69, NCI-H187 and overnight for the rest of the cells). Serial dilutions of test compound in DMSO were added to the cells while maintaining the final DMSO concentration of 0.4%-0.5% in the well. Plates were incubated for 96-144 h (the exact duration for each assay is described in Table 3) at 37° C., 5% CO2. Subsequently, MTT (final concentration 0.5 mg/mL in media) was incubated with the cells at 37° C., 5% CO2 for 4-5 hours. The formazan crystals were dissolved overnight at 37° C., 5% CO2 using 100 μL extractant (10% SDS in 0.01N HCl) and quantified using absorbance at 570 nm with reference wavelength 630 nm. Growth inhibition was represented as percent decrease in absorbance compared to vehicle treated cells.

PANC-1 cells = assay: In-vitro cancer cell growth inhibition assay (MTT); format: cell-based; details: Homo sapiens, read-out: IC50 (nM) PANC-1
Procedure: as §1

MDA-MB-231 cells = assay: In-vitro cancer cell growth inhibition assay (MTT); format: cell-based; details: Homo sapiens, read-out: IC50 (nM) MDA-MB-231
Procedure: as §1

MDA-MB-468 cells = assay: In-vitro cancer cell growth inhibition assay (MTT); format: cell-based; details: Homo sapiens, read-out: IC50 (nM) MDA-MB-468
Procedure: as §1

NCI H526 cells = assay: In-vitro cancer cell growth inhibition assay (MTT); format: cell-based; details: Homo sapiens, NCI-H526, 96-144 h, read-out: IC50 (nM) NCI H526
Procedure: as §1

NCI H69 cells = assay: In-vitro cancer cell growth inhibition assay (MTT); format: cell-based; details: Homo sapiens, read-out: IC50 (nM) NCI H69
Procedure: as §1

MX-1 cells = assay: In-vitro cancer cell growth inhibition assay (MTT); format: cell-based; details: Homo sapiens, read-out: IC50 (nM) MX-1
Procedure: as §1

[2] = Comparison of solubility in water; format: physicochemical
Description: Comparison of Solubility of Compound I.4 in Water with SN-38

[3] = In-vitro stability in mice tumor lysate; details: for % Remaining in tumor lysate: spiked 2000 ng/mL, pH 5.5, 37° C.
Procedure: Aliquot of 100 μL were taken from stability samples in pre-labelled micro-centrifuge tubes. 5 μL of cetirizine working internal standard (5 μg/mL) was added to each tube and vortexed well. 1 mL acetonitrile was added to each tube and vortexed well and then centrifuge at 10000 RPM for 5 min at room temperature. The supernatant was collected in ria vials and evaporated to dryness under nitrogen stream. The samples were reconstituted in 1 mL of 0.1% formic acid in water: acetonitrile 30:70 v/v. The prepared samples were analyzed using LC-MS/MS method. Quantification was done against SN-38 standard, prepared at 2000 ng/mL concentration. SN-38 standard prepared by spiking 5 μL of SN-38 working standard to 95 μL of blank mice tumor homogenate to achieve 2000 ng/mL concentration and vortexed well and processed as described.
LC-MS/MS Method: Chromatographic separation was achieved on Inertsil C8-3 (50×4.6 mm, 5 μ) with a flow rate of 250 μL/min and an injection volume of 10 μL. The sample cooler was maintained at 10° C. The column oven temperature was set to 40° C. The mobile phase consisted of 0.1% formic acid in Milli Q water and acetonitrile in the ratio of 30:70 v/v, respectively. […] The overall chromatographic run time was 4.0 minutes.
Detection was performed by tandem mass spectrometry (TSQ Quantum, Discovery MAX, Thermo Electron Corporation) and peak areas were integrated using LCquan software version 2.9 QF1.
0 hr standard area was considered as 100% for calculation.

[4] = NCI-H187, read-out: IC50 (nM) NCI H187

Compound: CCc1c2c(nc3ccc(O)cc13)-c1cc3c(c(=O)n1C2)COC(=O)[C@@]3(CC)OC(=O)OCCSSCCOC(=O)Nc1ccc(N2CCN(C)CC2)cc1.Cl [Compound I.2, 2-(2-{N-[4-(4-Methylpiperazin-1-yl)phenyl]carbamoyloxy}ethyldisulfanyl)ethyl [(4S)-4,11-diethyl-3,4,12,14-tetrahydro-9-hydroxy-1H-pyrano[3′,4′:6,7]indolizino[1,2-b]quinoline-3,14-(4H,12H)dione-4-yl] carbonate hydrochloride]
% of Unconverted Compounds of Formula I ([1]; pH 4.7, 0 hr, 200 μg/ml): 100% | % of Unconverted Compounds of Formula I ([1]; pH 4.7, 2 hr, 200 μg/ml): 97.3% | % of Unconverted Compounds of Formula I ([1]; pH 4.7, 4 hr, 200 μg/ml): 100% | % of Unconverted Compounds of Formula I ([1]; pH 4.7, 6 hr, 200 μg/ml): 100% | % of Unconverted Compounds of Formula I ([1]; pH 4.7, 8 hr, 200 μg/ml): 100% | % of Unconverted Compounds of Formula I ([1]; pH 6.0, 0 hr, 200 μg/ml): 100% | % of Unconverted Compounds of Formula I ([1]; pH 6.0, 2 hr, 200 μg/ml): 95.5% | % of Unconverted Compounds of Formula I ([1]; pH 6.0, 4 hr, 200 μg/ml): 98.5% | % of Unconverted Compounds of Formula I ([1]; pH 6.0, 6 hr, 200 μg/ml): 100% | % of Unconverted Compounds of Formula I ([1]; pH 6.0, 8 hr, 200 μg/ml): 100% | % of Unconverted Compounds of Formula I ([1]; pH 7.4, 0 hr, 200 μg/ml): 100% | % of Unconverted Compounds of Formula I ([1]; pH 7.4, 2 hr, 200 μg/ml): 90.1% | % of Unconverted Compounds of Formula I ([1]; pH 7.4, 4 hr, 200 μg/ml): 93.5% | % of Unconverted Compounds of Formula I ([1]; pH 7.4, 6 hr, 200 μg/ml): 88.7% | % of Unconverted Compounds of Formula I ([1]; pH 7.4, 8 hr, 200 μg/ml): 91.6% | IC50 (NCI H187 cells; [4]): 0.27 nM | IC50 (HT-29 cells; HT-29, 96 h): 31 nM | IC50 (PANC-1 cells; PANC-1, 96 h): 508 nM | IC50 (MDA-MB-231 cells; MDA-MB-231, 96 h): 112 nM | IC50 (MDA-MB-468 cells; MDA-MB-468, 96 h): 6.6 nM | IC50 (NCI H526 cells): 1.58 nM | IC50 (NCI H69 cells; NCI-H69, 144 h): 1.3 nM | IC50 (MX-1 cells; MX1, 144 h): 5.9 nM

Compound: CCc1c2c(nc3ccc(O)cc13)-c1cc3c(c(=O)n1C2)COC(=O)[C@@]3(CC)OC(=O)OCCSSCCOC(=O)N(C)c1ccc(N2CCN(C)CC2)cc1 [Compound I.4, 2-(2-{N-Methyl-N-[4-(4-methylpiperazin-1-yl)phenyl]carbamoyloxy}ethyldisulfanyl)ethyl [(4S)-4,11-diethyl-3,4,12,14-tetrahydro-9-hydroxy-1H-pyrano[3′,4′:6,7]indolizino[1,2-b]quinoline-3,14-(4H,12H)dione-4-yl] carbonate dihydrochloride]
Solubility in water [2]: Solubility: 100 mg/11 ml in water. | IC50 (MDA-MB-231 cells; MDA-MB-231, 96 h): 129 nM | IC50 (MDA-MB-468 cells; MDA-MB-468, 96 h): 8.2 nM | IC50 (MX-1 cells; MX1, 144 h): 6.9 nM | % Remaining in tumor lysate ([3]; 0 hr): 100.0% | % Remaining in tumor lysate ([3]; 1 hr): 0.0% | % Remaining in tumor lysate ([3]; 2 hr): 0.0% | % Remaining in tumor lysate ([3]; 4 hr): 0.0% | % Remaining in tumor lysate ([3]; 6 hr): 0.0% | % Remaining in tumor lysate ([3]; 8 hr): 0.0% | time after incubation until cleaved to give active SN-38 ([3]; tumor lysate, 37° C.): ≤ 1 h

Compound: CCc1c2c(nc3ccc(O)cc13)-c1cc3c(c(=O)n1C2)COC(=O)[C@@]3(CC)OC(=O)OCCSSCCNC(=O)c1ccc(N2CCN(C)CC2)cc1 [Compound I.5, 2-(2-{4-[4-Methylpiperazin-1-yl]benzoylamino}ethyldisulfanyl) ethyl [(4S)-4,11-diethyl-3,4,12,14-tetrahydro-9-hydroxy-1H-pyrano[3′,4′:6,7]indolizino[1,2-b]quinoline-3,14-(4H,12H)dione-4-yl]carbonate dihydrochloride]
% of Unconverted Compounds of Formula I ([1]; pH 4.7, 0 hr, 100 μg/ml (footnote *)): 100% | % of Unconverted Compounds of Formula I ([1]; pH 4.7, 2 hr, 100 μg/ml (footnote *)): 82.5% | % of Unconverted Compounds of Formula I ([1]; pH 4.7, 4 hr, 100 μg/ml (footnote *)): 86.3% | % of Unconverted Compounds of Formula I ([1]; pH 4.7, 6 hr, 100 μg/ml (footnote *)): 79.9% | % of Unconverted Compounds of Formula I ([1]; pH 4.7, 8 hr, 100 μg/ml (footnote *)): 77.2% | % of Unconverted Compounds of Formula I ([1]; pH 6.0, 0 hr, 100 μg/ml (footnote *)): 100% | % of Unconverted Compounds of Formula I ([1]; pH 6.0, 2 hr, 100 μg/ml (footnote *)): 94.1% | % of Unconverted Compounds of Formula I ([1]; pH 6.0, 4 hr, 100 μg/ml (footnote *)): 100% | % of Unconverted Compounds of Formula I ([1]; pH 6.0, 6 hr, 100 μg/ml (footnote *)): 100% | % of Unconverted Compounds of Formula I ([1]; pH 6.0, 8 hr, 100 μg/ml (footnote *)): 98.4% | % of Unconverted Compounds of Formula I ([1]; pH 7.4, 0 hr, 100 μg/ml (footnote *)): 100% | % of Unconverted Compounds of Formula I ([1]; pH 7.4, 2 hr, 100 μg/ml (footnote *)): 88.0% | % of Unconverted Compounds of Formula I ([1]; pH 7.4, 4 hr, 100 μg/ml (footnote *)): 82.8% | % of Unconverted Compounds of Formula I ([1]; pH 7.4, 6 hr, 100 μg/ml (footnote *)): 82.5% | % of Unconverted Compounds of Formula I ([1]; pH 7.4, 8 hr, 100 μg/ml (footnote *)): 82.4% | IC50 (NCI H187 cells; [4]): 0.77 nM | IC50 (HT-29 cells; HT-29, 96 h): 48.3 nM | IC50 (PANC-1 cells; PANC-1, 96 h): 910 nM | IC50 (MDA-MB-231 cells; MDA-MB-231, 96 h): 119 nM | IC50 (MDA-MB-468 cells; MDA-MB-468, 96 h): 9.3 nM | IC50 (NCI H526 cells): 2.06 nM | IC50 (NCI H69 cells; NCI-H69, 144 h): 1.3 nM | IC50 (MX-1 cells; MX1, 144 h): 4.6 nM

IC50 (HT-29 cells; HT-29, 96 hr, MTT): 14000 nM | IC50 (PANC-1 cells; PANC-1, 96 hr, MTT): 23000 nM | IC50 (MDA-MB-231 cells; MDA-MB-231, 96 hr, MTT): 21700 nM | IC50 (MDA-MB-468 cells; MDA-MB-468, 96 hr, MTT): 4580 nM | IC50 (MX-1 cells; MX1, MX-1, 144 hr, MTT): 5910 nM
Compound: CCc1c2c(nc3ccc(OC(=O)N4CCC(N5CCCCC5)CC4)cc13)-c1cc3c(c(=O)n1C2)COC(=O)[C@]3(O)CC [Irinotecan HCl trihydrate, reference compound]
IC50 (NCI H187 cells; NCI-H187, MTT, read-out: IC50 (nM) NCI H187): 385 nM | IC50 (NCI H526 cells; MTT): 750 nM | IC50 (NCI H69 cells; NCI-H69, 144 hr, MTT): 473 nM
